According to patent US11512085B2, “Heteroaryl compound having drug activity” (SHANGHAI DUDE MEDICAL TECHNOLOGY CO., LTD, priority 2017, dated 2022):

How the values were obtained:
Lck = Lck (Homo sapiens, UniProt P06239); assay: Btk selectivity over Lck (same kinase method, Btk replaced); assay type: biochemical; settings: ratio of IC50 values
Method: Other kinases (e.g., inhibitory activity of Lck and LynA is determined by replacing the Btk with various kinases and performing operations the same as that in the above method).

[1] = Rat liver microsome stability test; assay type: in vitro ADME
Method: Preparation of Buffer Solution:
1. 100 mM potassium phosphate buffer solution, pH of 7.4
Preparation of Test Compound Solution:
1. A test compound solution (10 mM, 5 μL) was diluted with a methanol solution (495 μL), and a 100 μM solution was prepared;
2. Preparation of a working solution: the above solution (50 μL) was diluted with the potassium phosphate buffer solution (450 μL, 100 mM) so as to obtain diluents (10 μM).
NADPH Regeneration System (Final Concentration 1 Unit/mL of Isocitrate Dehydrogenase):
1. beta-NADP, supplier: sigma Cat. No. N0505
3. isocitrate dehydrogenase, supplier: sigma Cat. No. 12002
Cold acetonitrile containing 100 ng/mL of tolbutamide and 100 ng/mL of labetalol serves as an internal standard
1. a 10 μL/well of working solution was added into plates (T0, T5, T10, T20, T30, T60, NCF60) beyond the blank;
2. a 80 μL/well of microsome solution was added, and incubation was performed at 37° C. for 10 min;
3. a 10 μL of 100 mM phosphate buffer solution was added into each well of an NCF60 plate, the plate was placed in a warm bath at 37° C., and timing started;
4. a 10 μL/well of NADPH regeneration system was added after preheating, and a reaction started;
5. incubation was performed at 37° C., and timing started
6. a 300 μL/well of stop solution was added (4° C., containing 100 ng/mL of tolbutamide and 100 ng/mL of labetalol) to end the reaction;
7. the plate was shaken for 10 min;
8. centrifugation was performed at 4° C. at a rotation speed of 4000 rpm; and
9. sample LC/MS/MS detection was performed.
Data Analysis Use Equation of First Order Kinetics to Calculate t½ and Clint(Mic): […]
equation of first order kinetics: […]

SD rats = assay: Single dose toxicity test in SD rats; assay type: in vivo
Method: Biological Embodiment 6: Single Dose Toxicity Test
During the experiment, all the animals were subjected to detailed clinical observation once (2 hours after drug administration) on the Day 1 and once every day on Day 2-14; the animals were weighed on the day of animal grouping, on the day of drug administration (before drug administration), Day 4, 7, 10 and 13 after drug administration and on the day of dissection, and weights were recorded; food consumption per cage was weighed within 24 hours on Day 2, 6, 9 and 13 in the experiment and recorded; and all live animals were subjected to gross anatomy examination on Day 15.
1. Preparation of Test and Control Products
a solvent control group: 30 ml of solvents (0.5% MC (methylcellulose), 0.4% of cremophor EL and 0.1% of sodium lauryl sulfate) were sucked into a suitable container, the pH value was measured as 7, and a colorless clarified solution was obtained.
(§1) Compound 6 (400 mg/kg): 1507.1 mg of the compound 6 was weighed into a suitable container, solvents (0.5% MC (methylcellulose), 0.4% cremophor EL and 0.1% sodium lauryl sulfate) were added into the container to reach a constant volume of 30 ml, ultrasonic treatment was performed for 20 minutes, stirring was performed for 15 minutes, a mixing instrument was used for 5 minutes, the pH value was measured as 7, and white suspension was obtained.
as §1, with “(1000” for “(400”, “3765.5” for “1507.1”, “25” for “20”, “21” for “15”, “obtained. […]” for “obtained.”

SU-DHL-4 = assay: In vitro tumor cell proliferation (CellTiter-Glo), SU-DHL-4; assay type: cell-based; settings: Homo sapiens, SU-DHL-4, 72 h; read-out: Growth IC50
Method: (§2) Biological Embodiment 8: Study on Effects of Active Compounds for Inhibiting In Vitro Tumor Cell Proliferation
(§3) Promega CellTiter-Glo cell activity detection kit by luminescence (Promega-G7573).
(§4) Tumor cell lines were cultured in a 5% of CO2 incubator at 37° C. according to respective culture conditions; and periodic passage was performed, and cells positioned in a logarithmic phase were taken for planking.
(§5) 3) 90 μL of cell suspension was added into each well of the culture plate, and a culture solution containing no cell was added into blank control;
(§6) 4) the culture plate was cultured overnight in the 5% of CO2 incubator having relative humidity of 100% at 37° C.
(§7) Preparation of a 400× compound storage plate: the compound was diluted from the maximum concentration gradient to the lowest concentration with DMSO. […]
(§8) The following steps were performed according to the specification of the Promega CellTiter-Glo cell activity detection kit by luminescence (Promega-G7573). […]
(§9) 9) the luminescence signal was detected on the 2104 EnVision plate reader.

OCI-LY3 = assay: In vitro tumor cell proliferation (CellTiter-Glo), OCI-LY3; assay type: cell-based; settings: Homo sapiens, OCI-Ly3, 72 h; read-out: Growth IC50
Method: as §2, §3, §4, §5, §6, §7, §8, §9

hERG channel = hERG channel (Homo sapiens, UniProt Q12809); assay: hERG current blocking test (whole-cell patch clamp)
Sequence of hERG channel (Q12809 whole entry): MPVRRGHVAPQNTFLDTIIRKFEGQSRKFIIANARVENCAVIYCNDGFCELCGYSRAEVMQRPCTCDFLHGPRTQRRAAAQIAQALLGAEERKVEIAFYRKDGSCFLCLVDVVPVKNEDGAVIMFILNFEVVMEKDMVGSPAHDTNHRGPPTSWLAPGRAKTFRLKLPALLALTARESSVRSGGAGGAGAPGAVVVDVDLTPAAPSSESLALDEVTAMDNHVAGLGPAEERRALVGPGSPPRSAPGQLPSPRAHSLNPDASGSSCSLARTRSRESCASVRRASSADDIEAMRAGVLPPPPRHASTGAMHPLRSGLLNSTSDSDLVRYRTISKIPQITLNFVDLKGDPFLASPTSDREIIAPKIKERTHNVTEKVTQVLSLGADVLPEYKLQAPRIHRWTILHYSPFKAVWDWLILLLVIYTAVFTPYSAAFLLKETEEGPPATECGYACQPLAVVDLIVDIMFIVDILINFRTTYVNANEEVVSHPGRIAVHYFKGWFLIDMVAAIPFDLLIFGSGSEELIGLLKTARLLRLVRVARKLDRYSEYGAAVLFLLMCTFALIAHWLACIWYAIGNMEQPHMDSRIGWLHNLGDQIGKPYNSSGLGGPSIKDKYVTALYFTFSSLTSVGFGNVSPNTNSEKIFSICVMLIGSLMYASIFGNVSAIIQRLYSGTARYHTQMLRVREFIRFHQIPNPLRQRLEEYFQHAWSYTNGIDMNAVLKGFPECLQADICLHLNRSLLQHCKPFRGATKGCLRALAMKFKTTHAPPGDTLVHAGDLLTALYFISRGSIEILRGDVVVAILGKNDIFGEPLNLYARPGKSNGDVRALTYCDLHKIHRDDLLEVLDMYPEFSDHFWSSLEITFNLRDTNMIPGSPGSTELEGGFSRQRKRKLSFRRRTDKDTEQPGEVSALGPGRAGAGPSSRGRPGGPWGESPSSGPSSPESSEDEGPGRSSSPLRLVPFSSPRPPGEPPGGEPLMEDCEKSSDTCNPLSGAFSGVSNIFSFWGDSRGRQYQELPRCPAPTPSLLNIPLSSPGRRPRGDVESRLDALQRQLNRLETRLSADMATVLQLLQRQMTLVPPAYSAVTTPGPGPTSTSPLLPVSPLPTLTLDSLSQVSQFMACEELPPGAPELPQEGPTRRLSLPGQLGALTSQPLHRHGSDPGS

Sequence of Lck (P06239 whole entry): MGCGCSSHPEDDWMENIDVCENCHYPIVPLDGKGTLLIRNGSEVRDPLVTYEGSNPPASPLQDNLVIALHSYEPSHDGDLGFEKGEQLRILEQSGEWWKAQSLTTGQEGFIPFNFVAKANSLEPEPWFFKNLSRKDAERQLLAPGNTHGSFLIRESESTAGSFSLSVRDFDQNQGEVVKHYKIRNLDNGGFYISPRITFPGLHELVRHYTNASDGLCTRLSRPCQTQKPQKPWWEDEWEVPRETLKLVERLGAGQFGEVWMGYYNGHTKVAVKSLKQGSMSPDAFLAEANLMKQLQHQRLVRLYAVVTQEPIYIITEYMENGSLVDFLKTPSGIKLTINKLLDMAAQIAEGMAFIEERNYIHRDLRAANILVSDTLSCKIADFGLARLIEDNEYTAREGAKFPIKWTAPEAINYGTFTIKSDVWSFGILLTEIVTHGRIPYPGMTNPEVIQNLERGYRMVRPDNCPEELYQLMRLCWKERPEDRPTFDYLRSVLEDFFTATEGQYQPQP

C=CC(=O)NN1CCCC(n2nc(-c3ccc(Oc4ccccc4)cc3)c3c(N)ncnc32)C1 (stereo not drawn) [Embodiment 6, N-(3-(4-amino-3-(4-phenoxyphenyl)-1H-pyrazolo[3,4-D]pyrimidine-1-yl)-1-piperidyl)-acrylamide]
Lck[IC50]/Btk[IC50] (Lck): 285
Remaining (*NCF = 60 min) ([1]; RLM 0.5, 60 min, no co-factor): 105.4%
Remaining (T = 60 min) ([1]; RLM 0.5, 60 min with NADPH regenerating system): 1.1%
half-life at 1 µM ([1]; rat, liver microsomes, pH 7.4, RLM 0.5 (0.5 mg protein/mL)): 8.9 min
microsomal CLint at 1 µM ([1]; rat, liver microsomes, pH 7.4, RLM 0.5, read-out: CLint(mic)): 155 µL/min/mg
CLint scaled at 1 µM ([1]; rat, liver microsomes, pH 7.4, RLM 0.5, scaled from CLint(mic)): 280 mL/min/kg
Maximum tolerance dosage (SD rats; SD rats, oral, once, 0, 400, 1000, 2000 mg/kg): 2000 mg/kg
Gross anatomy (SD rats; rat, in vivo): no abnormality
Results (single dose toxicity) (SD rats; rat, in vivo): No animal died; all tissues
IC50 (SU-DHL-4): 0.075 µM
IC50 (OCI-LY3): > 10 µM
IC50 (hERG channel): 8.06 µM
